Measurements: US20040038888A1 (priority 2002, published 2004)

Legend:
[1] = tested on: hippocampal NSC/neural progenitors cells; test: PACAP/BrdU infusion, BrdU labelling of the dentate gyrus; assay type: in vivo, mouse; conditions: 600 nM pump concentration, 0.5 μl/hr into the lateral ventricle, 3.5 days, relative to vehicle
Experimental: 10 week old male mice (C57B1/2), maintained on a 12 hr light/dark cycle with food and water ad libidum, were infused in the right lateral ventricle with PACAP38 (Bachem), using a Alzet pump (1007D), for 3,5 days or 7 days at a daily dose of 31 ng/day (600 nM PACAP pump concentration infused at a rate of 0.5 μl/hr). Bromodeoxyuridine (BrdU) (50 mg/ml) was also included in the infusion vehicle (0.9% saline containing 1 mg/ml mouse serum albumin (Sigma)) to enable measurement of proliferation by quantitation of BrdU incorporation in the DNA. The group of infused with either PACAP/BrdU or vehicle/BrdU for 3,5 days and sacrificed at this time point. […]
Brains were cut into 14-μm coronal sections using a cryostat-microtome. […] After 1 hour of washing, the BrdU-antibody complex was detected using 0.05% diaminobenzidine with 0.01% H2O2, and counterstained with Hematoxylin. […]
For all BrdU labelling experiments, three to six sections per animal were analysed. […] The number of BrdU-labelled cells per area of dentate granule cell layer was counted manually. […] BrdU-positive cells were counted along 2×250 micrometer strips of the lateral ventricle wall (see FIG. 18). Area measurements of both the dentate granule cell layer and the “counted” region of the lateral ventricle wall (including the ependymal cell layer and subventricular zone) were made from each slide used for the cell counts. […]

hippocampal neurogenesis = test: PACAP/BrdU infusion, BrdU/NeuN co-labelling of the dentate gyrus; assay type: in vivo, mouse; conditions: 600 nM pump concentration, 0.5 μl/hr, 7 days infusion plus 10 days survival, relative to vehicle
Experimental: 10 week old male mice (C57B1/2), maintained on a 12 hr light/dark cycle with food and water ad libidum, were infused in the right lateral ventricle with PACAP38 (Bachem), using a Alzet pump (1007D), for 3,5 days or 7 days at a daily dose of 31 ng/day (600 nM PACAP pump concentration infused at a rate of 0.5 μl/hr). Bromodeoxyuridine (BrdU) (50 mg/ml) was also included in the infusion vehicle (0.9% saline containing 1 mg/ml mouse serum albumin (Sigma)) to enable measurement of proliferation by quantitation of BrdU incorporation in the DNA. The group of infused with either PACAP/BrdU or vehicle/BrdU for 3,5 days and sacrificed at this time point. The group infused with either PACAP/BrdU or vehicle/BrdU for 7 days were allowed to survive a further 10 days. After the allotted time the mice were sacrificed, perfused with PBS the brains removed and frozen at −70° C. prior to sectioning for immumohistochemical analysis.
The procedure for doubling labeling of BrdU with NeuN was performed sequentially. […]
For all BrdU/NeuN co-labelling experiments, one to two sections per animal were analysed. […] The number of BrdU/NeuN-labelled cells per area of dentate granule cell layer was counted manually. […] Results of the dentate gyrus BrdU/NeuN counts are expressed as the average number of BrdU/NeuN-positive cells per dentate gyrus for each individual animal and reported as the mean ±SEM.

primary adult NSC = test: Culture of neurospheres for counting and photographing; assay type: cell-based, mouse; conditions: PACAP 100 nM in place of EGF, 7 days, versus control
Experimental: Anterior lateral wall of the lateral ventricle was dissociated as described in Example 2 (Method A), and the cells resuspended in Neurosphere medium without EGF. The cell suspension was divided into a 24-well plate with triplicates of control (no addition), PACAP treated and EGF (1 nM) treated cells. The final concentration of PACAP was 100 nM. After 7 days the spheres were counted and photographed using a Nikon Eclipse TE300 microscope and Nikon Spot Insight camera.

Substance: pituitary adenylate cyclase-activating polypeptide [PACAP]
- proliferation in the ipsilateral dentate gyrus (BrdU positive cells/mm^2) [1]: significant increase in proliferation
- neurogenesis in the ipsilateral dentate gyrus (BrdU/NeuN positive cells/dentate gyrus) (hippocampal neurogenesis): increase in neurogenesis
- sizes and number of neurospheres (primary adult NSC): observably greater than that of the control
